The assay in a line: Antioxidant activity against linolenic acid oxidation assessed as inhibition rate constant for conjugated diene hydroperoxide formation. Format: functional.
With `CC(C)=CCc1cc(CCc2cc(O)cc(O)c2)ccc1O`, the Activity is 6 ×10⁴ /M/s.

Consider `CC(C)=CCc1cc(CCc2cc(O)c(CC=C(C)C)c(O)c2)ccc1O`, for which the Activity stood at 7 ×10⁴ /M/s.

For the compound `COc1c(O)cc(CCc2cc(O)cc(O)c2)cc1CC=C(C)C`, the Activity amounted to 8 ×10⁴ /M/s. Under `CC(C)=CCc1cc(CCc2cc(O)c(CC=C(C)C)c(O)c2)cc(O)c1O` stands 11 ×10⁴ /M/s; under `CC(C)=CCc1cc(CCc2cc(O)cc(O)c2)cc(O)c1O`, 9 ×10⁴ /M/s.

The values above are taken from ChEMBL document CHEMBL1159355, “New dihydrostilbene derivatives from the leaves of Glycyrrhiza glabra and evaluation of their antioxidant activity” (J Nat Prod, 2003).
